# pEC50, pIC50: −log10 of the molar value.
# Tested on: SARS-CoV-2
# Assay: Antiviral activity against SARS-CoV-2 WIV04 infected in African green monkey Vero cells assessed as log reduction in viral RNA at 10 uM measured at 24 hrs post infection by qRT-PCR analysis
# Assay type: functional, Severe acute respiratory syndrome coronavirus 2
# Conditions: not given
row,Structure (SMILES),log(activity)
1,CC(C)C[C@H](NC(=O)/C=C/c1ccccc1)C(=O)N[C@H](C=O)C[C@@H]1CCCNC1=O,2
2,CC(C)C[C@H](NC(=O)[C@H](CC1CCCCC1)NC(=O)/C=C/c1ccccc1)C(=O)N[C@H](C=O)C[C@@H]1CCCNC1=O,2
3,CC(C)(C)[C@H](NC(=O)/C=C/c1ccccc1)C(=O)N[C@H](C=O)C[C@@H]1CCCNC1=O,2
4,CC(C)C[C@H](NC(=O)/C=C/c1ccccc1)C(=O)N[C@H](C=O)C[C@@H]1CCNC1=O,2
5,CCCC[C@H](NC(=O)/C=C/c1ccccc1)C(=O)N[C@H](C=O)C[C@@H]1CCNC1=O,2
6,CC(C)C[C@H](NC(=O)[C@@H](NC(=O)c1ccc2ccccc2c1)C(C)C)C(=O)N[C@H](C=O)C[C@@H]1CCCNC1=O,2

# Tested on: Vero
# Assay: Cytotoxicity against African green monkey Vero cells assessed as reduction in cell viability incubated for 48 hrs by CCK8 assay
# Assay type: toxicity, cell-based
# Conditions: chlorocebus sabaeus
row,Structure (SMILES),Activity
1,CC(C)C[C@H](NC(=O)/C=C/c1ccccc1)C(=O)N[C@H](C=O)C[C@@H]1CCCNC1=O,Non-Toxic
2,CC(C)C[C@H](NC(=O)[C@H](CC1CCCCC1)NC(=O)/C=C/c1ccccc1)C(=O)N[C@H](C=O)C[C@@H]1CCCNC1=O,Non-Toxic
3,CC(C)C[C@H](NC(=O)/C=C/c1ccccc1)C(=O)N[C@H](C=O)C[C@@H]1CCNC1=O,Non-Toxic
4,O=C[C@H](C[C@@H]1CCCNC1=O)NC(=O)[C@H](CC1CC1)NC(=O)/C=C/c1ccccc1,Non-Toxic
5,CCCC[C@H](NC(=O)/C=C/c1ccccc1)C(=O)N[C@H](C=O)C[C@@H]1CCNC1=O,Non-Toxic
6,CC(C)C[C@H](NC(=O)[C@@H](NC(=O)c1ccc2ccccc2c1)C(C)C)C(=O)N[C@H](C=O)C[C@@H]1CCCNC1=O,Non-Toxic

# Tested on: SARS-CoV-2
# Assay: Antiviral activity against SARS-CoV-2 WIV04 infected in African green monkey Vero cells assessed as inhibition of viral proliferation measured at 24 hrs post infection by qRT-PCR analysis
# Assay type: functional, organism-based
# Conditions: Severe acute respiratory syndrome coronavirus 2, WIV04, Vero
row,Structure (SMILES),pEC50
1,CC(C)[C@H](NC(=O)/C=C/c1ccccc1)C(=O)N[C@H](C=O)C[C@@H]1CCCNC1=O,< 5.52
2,CC(C)C[C@H](NC(=O)/C=C/c1ccccc1)C(=O)N[C@H](C=O)C[C@@H]1CCCNC1=O,5.82
3,O=C[C@H](C[C@@H]1CCNC1=O)NC(=O)[C@H](Cc1cccc(F)c1)NC(=O)c1cc2ccccc2[nH]1,6.44
4,CC(C)C[C@H](NC(=O)[C@@H](NC(=O)c1cc2ccccc2[nH]1)C(C)C)C(=O)N[C@H](C=O)C[C@@H]1CCCNC1=O,< 5.52
5,CCC[C@H](NC(=O)/C=C/c1ccccc1)C(=O)N[C@@H](CC(C)C)C(=O)N[C@H](C=O)C[C@@H]1CCCNC1=O,< 5.52
6,CC(C)C[C@H](NC(=O)[C@@H](NC(=O)C1CCOCC1)C(C)C)C(=O)N[C@H](C=O)C[C@@H]1CCCNC1=O,< 5.52
7,C#CC[C@H](NC(=O)/C=C/c1ccccc1)C(=O)N[C@H](C=O)C[C@@H]1CCCNC1=O,< 5.52
8,CC(C)C[C@H](NC(=O)[C@H](CC1CCCCC1)NC(=O)/C=C/c1ccccc1)C(=O)N[C@H](C=O)C[C@@H]1CCCNC1=O,5.78
9,CC(C)C[C@H](NC(=O)[C@@H](NC(=O)c1ccco1)C(C)C)C(=O)N[C@H](C=O)C[C@@H]1CCCNC1=O,< 5.52
10,Cc1ccc(/C=C/C(=O)N[C@H](C(=O)N[C@@H](CC(C)C)C(=O)N[C@H](C=O)C[C@@H]2CCCNC2=O)C(C)C)cc1,< 5.52
11,CC(C)C[C@H](NC(=O)[C@@H](NC(=O)C1CCCCC1)C(C)C)C(=O)N[C@H](C=O)C[C@@H]1CCCNC1=O,< 5.52
12,CC(C)C[C@H](NC(=O)[C@@H](NC(=O)/C=C/c1ccc(-c2ccccc2)cc1)C(C)C)C(=O)N[C@H](C=O)C[C@@H]1CCCNC1=O,< 5.52
13,CC(C)C[C@H](NC(=O)[C@@H](NC(=O)c1cccnc1)C(C)C)C(=O)N[C@H](C=O)C[C@@H]1CCCNC1=O,< 5.52
14,C#CC[C@H](NC(=O)/C=C/c1ccccc1)C(=O)N[C@H](C=O)C[C@@H]1CCNC1=O,< 5.52
15,CC(C)C[C@H](NC(=O)[C@@H](NC(=O)CCc1ccccc1)C(C)C)C(=O)N[C@H](C=O)C[C@@H]1CCCNC1=O,< 5.52
16,CC(C)C[C@H](NC(=O)[C@@H](NC(=O)c1ccc(C(F)(F)F)cc1)C(C)C)C(=O)N[C@H](C=O)C[C@@H]1CCCNC1=O,< 5.52
17,CC(C)(C)[C@H](NC(=O)/C=C/c1ccccc1)C(=O)N[C@H](C=O)C[C@@H]1CCCNC1=O,< 5.52
18,CC(C)C[C@H](NC(=O)/C=C/c1ccccc1)C(=O)N[C@H](C=O)C[C@@H]1CCNC1=O,5.97
19,O=C[C@H](C[C@@H]1CCCNC1=O)NC(=O)[C@H](CC1CC1)NC(=O)/C=C/c1ccccc1,5.95
20,CCCC[C@H](NC(=O)/C=C/c1ccccc1)C(=O)N[C@H](C=O)C[C@@H]1CCNC1=O,5.95
21,CC(C)C[C@H](NC(=O)[C@@H](NC(=O)c1ccc2ccccc2c1)C(C)C)C(=O)N[C@H](C=O)C[C@@H]1CCCNC1=O,5.87

# Tested on: A549
# Assay: Cytotoxicity against human A549 cells assessed as inhibition of cell growth measured after 24 hrs by MTT assay
# Assay type: toxicity, cell-based
# Conditions: a549, 24 h
row,Structure (SMILES),Activity
1,CC(C)[C@H](NC(=O)/C=C/c1ccccc1)C(=O)N[C@H](C=O)C[C@@H]1CCCNC1=O,Non-Toxic
2,CC(C)C[C@H](NC(=O)/C=C/c1ccccc1)C(=O)N[C@H](C=O)C[C@@H]1CCCNC1=O,Non-Toxic
3,O=C[C@H](C[C@@H]1CCNC1=O)NC(=O)[C@H](Cc1cccc(F)c1)NC(=O)c1cc2ccccc2[nH]1,Non-Toxic
4,CC(C)C[C@H](NC(=O)[C@@H](NC(=O)c1cc2ccccc2[nH]1)C(C)C)C(=O)N[C@H](C=O)C[C@@H]1CCCNC1=O,Non-Toxic
5,CCC[C@H](NC(=O)/C=C/c1ccccc1)C(=O)N[C@@H](CC(C)C)C(=O)N[C@H](C=O)C[C@@H]1CCCNC1=O,Non-Toxic
6,CC(C)C[C@H](NC(=O)[C@@H](NC(=O)C1CCOCC1)C(C)C)C(=O)N[C@H](C=O)C[C@@H]1CCCNC1=O,Non-Toxic
7,C#CC[C@H](NC(=O)/C=C/c1ccccc1)C(=O)N[C@H](C=O)C[C@@H]1CCCNC1=O,Non-Toxic
8,CC(C)C[C@H](NC(=O)[C@H](CC1CCCCC1)NC(=O)/C=C/c1ccccc1)C(=O)N[C@H](C=O)C[C@@H]1CCCNC1=O,Non-Toxic
9,CC(C)C[C@H](NC(=O)[C@@H](NC(=O)c1ccco1)C(C)C)C(=O)N[C@H](C=O)C[C@@H]1CCCNC1=O,Non-Toxic
10,Cc1ccc(/C=C/C(=O)N[C@H](C(=O)N[C@@H](CC(C)C)C(=O)N[C@H](C=O)C[C@@H]2CCCNC2=O)C(C)C)cc1,Non-Toxic
11,CC(C)C[C@H](NC(=O)[C@@H](NC(=O)C1CCCCC1)C(C)C)C(=O)N[C@H](C=O)C[C@@H]1CCCNC1=O,Non-Toxic
12,CC(C)C[C@H](NC(=O)[C@@H](NC(=O)/C=C/c1ccc(-c2ccccc2)cc1)C(C)C)C(=O)N[C@H](C=O)C[C@@H]1CCCNC1=O,Non-Toxic
13,CC(C)C[C@H](NC(=O)[C@@H](NC(=O)c1cccnc1)C(C)C)C(=O)N[C@H](C=O)C[C@@H]1CCCNC1=O,Non-Toxic
14,C#CC[C@H](NC(=O)/C=C/c1ccccc1)C(=O)N[C@H](C=O)C[C@@H]1CCNC1=O,Non-Toxic
15,CC(C)C[C@H](NC(=O)[C@@H](NC(=O)CCc1ccccc1)C(C)C)C(=O)N[C@H](C=O)C[C@@H]1CCCNC1=O,Non-Toxic
16,CC(C)C[C@H](NC(=O)[C@@H](NC(=O)c1ccc(C(F)(F)F)cc1)C(C)C)C(=O)N[C@H](C=O)C[C@@H]1CCCNC1=O,Non-Toxic
17,CC(C)(C)[C@H](NC(=O)/C=C/c1ccccc1)C(=O)N[C@H](C=O)C[C@@H]1CCCNC1=O,Non-Toxic
18,CC(C)C[C@H](NC(=O)/C=C/c1ccccc1)C(=O)N[C@H](C=O)C[C@@H]1CCNC1=O,Non-Toxic
19,O=C[C@H](C[C@@H]1CCCNC1=O)NC(=O)[C@H](CC1CC1)NC(=O)/C=C/c1ccccc1,Non-Toxic
20,CCCC[C@H](NC(=O)/C=C/c1ccccc1)C(=O)N[C@H](C=O)C[C@@H]1CCNC1=O,Non-Toxic
21,CC(C)C[C@H](NC(=O)[C@@H](NC(=O)c1ccc2ccccc2c1)C(C)C)C(=O)N[C@H](C=O)C[C@@H]1CCCNC1=O,Non-Toxic

# Molecular target: Replicase polyprotein 1ab (Severe acute respiratory syndrome coronavirus 2, UniProt P0DTD1)
# Assay: Inhibition of SARS-CoV-2 3CL protease expressed in Escherichia coli BL21 (DE3) cells assessed as change in relative fluorescence unit using MCA-TSAVLQSGFRK(DNP)M as substrate preincubated for 30 mins followed by substrate addition and measured after 2 hrs by microplate reader based FRET assay
# Conditions: not given
row,Structure (SMILES),pIC50
1,CC(C)[C@H](NC(=O)/C=C/c1ccccc1)C(=O)N[C@H](C=O)C[C@@H]1CCCNC1=O,5.16
2,CC(C)C[C@H](NC(=O)/C=C/c1ccccc1)C(=O)N[C@H](C=O)C[C@@H]1CCCNC1=O,6.49
3,O=C[C@H](C[C@@H]1CCNC1=O)NC(=O)[C@H](Cc1cccc(F)c1)NC(=O)c1cc2ccccc2[nH]1,6.07
4,CC(C)C[C@H](NC(=O)[C@@H](NC(=O)c1cc2ccccc2[nH]1)C(C)C)C(=O)N[C@H](C=O)C[C@@H]1CCCNC1=O,6.53
5,CCC[C@H](NC(=O)/C=C/c1ccccc1)C(=O)N[C@@H](CC(C)C)C(=O)N[C@H](C=O)C[C@@H]1CCCNC1=O,6.27
6,CC(C)C[C@H](NC(=O)[C@@H](NC(=O)C1CCOCC1)C(C)C)C(=O)N[C@H](C=O)C[C@@H]1CCCNC1=O,6.55
7,C#CC[C@H](NC(=O)/C=C/c1ccccc1)C(=O)N[C@H](C=O)C[C@@H]1CCCNC1=O,5.48
8,CC(C)C[C@H](NC(=O)[C@H](CC1CCCCC1)NC(=O)/C=C/c1ccccc1)C(=O)N[C@H](C=O)C[C@@H]1CCCNC1=O,5.82
9,CC(C)C[C@H](NC(=O)[C@@H](NC(=O)c1ccco1)C(C)C)C(=O)N[C@H](C=O)C[C@@H]1CCCNC1=O,6.63
10,Cc1ccc(/C=C/C(=O)N[C@H](C(=O)N[C@@H](CC(C)C)C(=O)N[C@H](C=O)C[C@@H]2CCCNC2=O)C(C)C)cc1,6.71
11,CC(C)C[C@H](NC(=O)[C@@H](NC(=O)C1CCCCC1)C(C)C)C(=O)N[C@H](C=O)C[C@@H]1CCCNC1=O,5.85
12,CC(C)C[C@H](NC(=O)[C@@H](NC(=O)/C=C/c1ccc(-c2ccccc2)cc1)C(C)C)C(=O)N[C@H](C=O)C[C@@H]1CCCNC1=O,6.53
13,CC(C)C[C@H](NC(=O)[C@@H](NC(=O)c1cccnc1)C(C)C)C(=O)N[C@H](C=O)C[C@@H]1CCCNC1=O,6.19
14,C#CC[C@H](NC(=O)/C=C/c1ccccc1)C(=O)N[C@H](C=O)C[C@@H]1CCNC1=O,5.41
15,CC(C)C[C@H](NC(=O)[C@@H](NC(=O)CCc1ccccc1)C(C)C)C(=O)N[C@H](C=O)C[C@@H]1CCCNC1=O,6.70
16,CC(C)C[C@H](NC(=O)[C@@H](NC(=O)c1ccc(C(F)(F)F)cc1)C(C)C)C(=O)N[C@H](C=O)C[C@@H]1CCCNC1=O,5.85
17,CC(C)(C)[C@H](NC(=O)/C=C/c1ccccc1)C(=O)N[C@H](C=O)C[C@@H]1CCCNC1=O,5.46
18,CC(C)C[C@H](NC(=O)/C=C/c1ccccc1)C(=O)N[C@H](C=O)C[C@@H]1CCNC1=O,6.43
19,O=C[C@H](C[C@@H]1CCCNC1=O)NC(=O)[C@H](CC1CC1)NC(=O)/C=C/c1ccccc1,6.53
20,CCCC[C@H](NC(=O)/C=C/c1ccccc1)C(=O)N[C@H](C=O)C[C@@H]1CCNC1=O,6.43
21,CC(C)C[C@H](NC(=O)[C@@H](NC(=O)c1ccc2ccccc2c1)C(C)C)C(=O)N[C@H](C=O)C[C@@H]1CCCNC1=O,6.57

# From ChEMBL document CHEMBL5137031, “The structure-based design of peptidomimetic inhibitors against SARS-CoV-2 3C like protease as Potent anti-viral drug candidate” (Eur J Med Chem, 2022)
